Laboratory results as given in the supplement of paper PMC13207355.

Experiments:
Conditions in all cases: exposure time: 72 h
E13 [1] = patient-derived glioblastoma stem cells of classical subtype; test: surviving fraction (nuclei count normalised to DMSO); higher = more cells surviving (less toxic)
E21 [2] = patient-derived glioblastoma stem cells of mesenchymal subtype; test: as above
E28 [3] = patient-derived glioblastoma stem cells of classical subtype; test: as above
E31 [4] = patient-derived glioblastoma stem cells of proneural subtype; test: as above
E34 [5] = patient-derived glioblastoma stem cells of proneural subtype; test: as above
E57 [6] = patient-derived glioblastoma stem cells of mesenchymal subtype; test: as above
FT3469 [7] = normal neural stem cell line; test: as above
E13 [8] = test: phenotypic distance (Euclidean, principal components) from DMSO controls (arbitrary units); higher = stronger morphological change
E21 [9] = test: as above
E28 [10] = test: as above
E31 [11] = test: as above
E34 [12] = test: as above
E57 [13] = test: as above
FT3469 [14] = test: as above
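For phenotypic distance (Euclidean, principal components) from DMSO controls in this document: cell Painting imaging in 384-well plates, CellProfiler features reduced to at least 20 principal components, Euclidean distance versus same-plate DMSO vehicle wells (0.1% v/v), median over six images per well.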
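For surviving fraction (nuclei count normalised to DMSO) in this document: nuclei counted by high-content imaging of Hoechst-stained cells in laminin-coated 384-well plates, relative to 0.1% DMSO vehicle wells, with staurosporine as cell-death control.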

CC(=O)O[C@H]1C[C@H](O[C@H]2[C@@H](O)C[C@H](O[C@H]3[C@@H](O)C[C@H](O[C@H]4CC[C@@]5(C)[C@H](CC[C@@H]6[C@@H]5C[C@@H](O)[C@]5(C)[C@@H](C7=CC(=O)OC7)CC[C@]65O)C4)O[C@@H]3C)O[C@@H]2C)O[C@H](C)[C@H]1O[C@@H]1O[C@H](CO)[C@@H](O)[C@H](O)[C@H]1O [Lanatoside C]
Conditions	phenotypic distance	surviving fraction
E13 [1], 4.1 nM	–	0.646
E13 [1], 12.3 nM	–	0.373
E13 [1], 37 nM	–	0.344
E13 [1], 111.1 nM	–	0.349
E13 [1], 333.3 nM	–	0.268
E13 [1], 1000 nM	–	0.273
E13 [1], 3000 nM	–	0.245
E13 [8], 4.1 nM	3.23	–
E13 [8], 12.3 nM	4.4	–
E13 [8], 37 nM	4.8	–
E13 [8], 111.1 nM	5.94	–
E13 [8], 333.3 nM	6.29	–
E13 [8], 1000 nM	6.53	–
E13 [8], 3000 nM	6.35	–
E21 [2], 4.1 nM	–	0.829
E21 [2], 12.3 nM	–	0.52
E21 [2], 37 nM	–	0.513
E21 [2], 111.1 nM	–	0.347
E21 [2], 333.3 nM	–	0.287
E21 [2], 1000 nM	–	0.214
E21 [2], 3000 nM	–	0.241
E21 [9], 4.1 nM	2.87	–
E21 [9], 12.3 nM	3.93	–
E21 [9], 37 nM	4.41	–
E21 [9], 111.1 nM	6.06	–
E21 [9], 333.3 nM	7.08	–
E21 [9], 1000 nM	6.66	–
E21 [9], 3000 nM	6.83	–
E28 [3], 4.1 nM	–	0.864
E28 [3], 12.3 nM	–	0.807
E28 [3], 37 nM	–	0.625
E28 [3], 111.1 nM	–	0.57
E28 [3], 333.3 nM	–	0.505
E28 [3], 1000 nM	–	0.394
E28 [3], 3000 nM	–	0.449
E28 [10], 4.1 nM	1.18	–
E28 [10], 12.3 nM	1.82	–
E28 [10], 37 nM	2.35	–
E28 [10], 111.1 nM	3.35	–
E28 [10], 333.3 nM	3.21	–
E28 [10], 1000 nM	3.17	–
E28 [10], 3000 nM	3.73	–
E31 [4], 4.1 nM	–	1.26
E31 [4], 12.3 nM	–	0.646
E31 [4], 37 nM	–	0.564
E31 [4], 111.1 nM	–	0.398
E31 [4], 333.3 nM	–	0.413
E31 [4], 1000 nM	–	0.35
E31 [4], 3000 nM	–	0.326
E31 [11], 4.1 nM	2.01	–
E31 [11], 12.3 nM	3.33	–
E31 [11], 37 nM	4.72	–
E31 [11], 111.1 nM	5.61	–
E31 [11], 333.3 nM	4.79	–
E31 [11], 1000 nM	4.62	–
E31 [11], 3000 nM	5.53	–
E34 [5], 4.1 nM	–	0.887
E34 [5], 12.3 nM	–	0.769
E34 [5], 37 nM	–	0.597
E34 [5], 111.1 nM	–	0.56
E34 [5], 333.3 nM	–	0.543
E34 [5], 1000 nM	–	0.397
E34 [5], 3000 nM	–	0.276
E34 [12], 4.1 nM	1.29	–
E34 [12], 12.3 nM	2.98	–
E34 [12], 37 nM	3.49	–
E34 [12], 111.1 nM	4.28	–
E34 [12], 333.3 nM	3.87	–
E34 [12], 1000 nM	3.82	–
E34 [12], 3000 nM	5.11	–
E57 [6], 4.1 nM	–	1.03
E57 [6], 12.3 nM	–	0.615
E57 [6], 37 nM	–	0.371
E57 [6], 111.1 nM	–	0.238
E57 [6], 333.3 nM	–	0.217
E57 [6], 1000 nM	–	0.177
E57 [6], 3000 nM	–	0.152
E57 [13], 4.1 nM	2.85	–
E57 [13], 12.3 nM	4.99	–
E57 [13], 37 nM	6.18	–
E57 [13], 111.1 nM	7.2	–
E57 [13], 333.3 nM	6.8	–
E57 [13], 1000 nM	6.87	–
E57 [13], 3000 nM	7.11	–
FT3469 [7], 4.1 nM	–	0.642
FT3469 [7], 12.3 nM	–	0.545
FT3469 [7], 37 nM	–	0.622
FT3469 [7], 111.1 nM	–	0.554
FT3469 [7], 333.3 nM	–	0.66
FT3469 [7], 1000 nM	–	0.627
FT3469 [7], 3000 nM	–	0.592
FT3469 [14], 4.1 nM	3.36	–
FT3469 [14], 12.3 nM	3.52	–
FT3469 [14], 37 nM	3.89	–
FT3469 [14], 111.1 nM	3.72	–
FT3469 [14], 333.3 nM	3.47	–
FT3469 [14], 1000 nM	3.7	–
FT3469 [14], 3000 nM	3.74	–
